Test [1] has as its system dopamine D2-dependent modulation of EPSPs in PFC pyramidal cells of NVHL rats. Kind of test: Slice electrophysiology: D2 (quinpirole) modulation of EPSPs in PFC layer V pyramidal cells of NVHL rats. It counts as in vivo, Sprague-Dawley rats. The conditions noted are these: adult NVHL rat PFC slices, quinpirole 5 μM; treatment during development. How it is done: If juvenile oxidative stress is the cause of physiological anomalies observed in adult NVHL rats, NAC treatment can rescue these alterations. Whole-cell recordings were conducted from pyramidal neurons in adult brain slices containing the medial PFC of SHAM (n=12), NVHL (n=16), and NAC-treated NVHL rats (n=14). As previously shown in adult NVHL rats and other rodent models of schizophrenia (Niwa et al., 2010; Tseng et al., 2008), the dopamine D2-dependent modulation of excitatory postsynaptic potentials (EPSPs) in layer V pyramidal cells was lost in NVHL rats (as shown in FIGS. 13A-C). This loss is likely due to abnormal maturation of PFC interneurons, as the normal adult D2 modulation includes a GABA-A receptor component (Tseng and O'Donnell, 2007), but oxidative stress in pyramidal neurons may also play a role. To determine whether altered PVI-dependent PFC synaptic responses are due to oxidative stress, rats were treated with NAC during development and then tested for D2 modulation of PFC physiology.
Antioxidant pretreatment regimen: NAC (BioAdvantexPharma, Mississauga, Ontario, Canada) was administered in the drinking water at 900 mg/l. NAC treatment started at P5 or at P35, and previous work in mice has shown that NAC consumed by the dam is transmitted to the pups through her milk (das Neves Duarte et al., 2012). NAC treatment ended at P50. […]

Test [2] has as its system 3-NT levels in PFC of NVHL rats. In words: 3-Nitrotyrosine (3-NT) labeling in adult PFC of NVHL rats. Type of test: in vivo, Sprague-Dawley rats. The conditions noted are these: P61 NVHL rats, juvenile treatment. An excerpt:
To assess oxidative stress, DNA oxidation with 8-oxo-7,8-dihydro-20-deoxyguanine (8-oxo-dG) labeling was quantified. […] 3-NT indicates nitration of proteins due to oxidative and nitrosative stress (Radi, 2004), and its increase in NVHL rats was prevented by NAC treatment during development (as shown in FIGS. 9A and 9B). […] A possible explanation for the levels of oxidative stress detected in the adult PFC following an NVHL is the reduced glutamatergic input from ventral hippocampus during development, as blocking NMDA receptors induces oxidative stress in PVI (Behrens et al., 2007).
Antioxidant pretreatment regimen: NAC (BioAdvantexPharma, Mississauga, Ontario, Canada) was administered in the drinking water at 900 mg/l. NAC treatment started at P5 or at P35, and previous work in mice has shown that NAC consumed by the dam is transmitted to the pups through her milk (das Neves Duarte et al., 2012). NAC treatment ended at P50. Fresh solutions were prepared every 2-3 days. Ebselen (Sound Pharmaceuticals Inc., Seattle, WA) was administered i.p. 5 days a week starting at P35 until the day of PPI testing (P60). Stock ebselen solution (20 mg/ml DMSO, frozen aliquots) was diluted 1:5 in sterile water and administered at a dose of 10 mg/kg. Control animals received an equivalent concentration of DMSO diluted 1:5 in water. […]

“Also recorded” adds a separate entry of the source.

For `CC(=O)N[C@@H](CS)C(=O)O` [NAC, N-acetyl cysteine], in test [1], the “effect on lost D2 modulation (quinpirole attenuation) of EPSPs” value was “rescued; also recorded: reverses”. In test [2], the “effect on increase in 3-NT labeling in PFC” value is “prevented”.

For the origin of these results see US20240050409A1, “Methods and Compositions for Treating Psychotic Disorders” (SOUND PHARMACEUTICALS INCORPORATED, priority 2014, published 2024).
